Results taken from patent US6395913B1, “Recovery and purification of 3,4-epoxy-1-butene” (Eastman Chemical Company, priority 2001, dated 2002).

How the values were obtained:
Type in all cases: physicochemical
[1] = Extraction affinity of water-immiscible solvents: distribution coefficients against a standard water/3-buten-1,2-diol/epoxybutene solution; details: room temperature; for Distribution Coefficients Epoxy-Butene: 1 part solvent : 1 part standard solution (35% water/65% diol with approx. 10 wt% epoxybutene), GC analysis, ONE PHASE = no phase separation; for Distribution Coefficients Solvent / Distribution Coefficients Water / Distribution Coefficients Diol: 1 part solvent : 1 part standard water-diol-epoxybutene solution; for Distribution Coefficients Diol: diol = 3-buten-1,2-diol
Experimental: This example compares the extraction affinity of various water-immiscible solvents for epoxybutene in the presence of aqueous absorbent mixtures, as occurs in the extraction zone of both embodiments of this invention. A standard mixture of 35% water and 65% 3-buten-1,2-diol (diol) was prepared. […] For each candidate extractant solvent specified in Table 1, one part by weight water-immiscible solvent was added to one part standard water-diol-epoxybutene solution in a separatory funnel. The mixture was vigorously shaken, allowed to settle, then separated into two liquid phases at room temperature. The aqueous and organic layers from the decantation were analyzed by gas chromatography to determine the composition of each layer. From these compositions, distribution coefficients were calculated for epoxybutene, water, diol, and the candidate extractant as follows: [formula]

[2] = Epoxybutene loss by reaction (hydrolysis) during continuous distillation; details: for epoxybutene present in the feed reacted to form 1,2-diol and higher diol oligomers: about 1 bar
Experimental: The distillation was conducted in a silvered, vacuum-jacketed glass Oldershaw column, equipped with a liquid-dividing distillation head, feed tray, reflux magnet, reflux timer, cooling water condenser, jacketed reboiler, pressure gage, and nitrogen purge line. The column was configured with a 15-plate stripping section, a 10-plate rectifying section, and a 500 ml jacketed flask heated by a thermostatted circulating oil bath. Feed to the column was supplied from a 5-liter jacketed vessel via a piston pump and bottoms take-off was removed via a second piston pump. The bottoms product was cooled in a small water-chilled stainless steel heat exchanger placed in line on the suction side of the pump. The distillate product flowed by gravity to a jacketed cooled receiver, which also functioned as a phase decanter. Thermocouples were provided at the reboiler, and distillation head. The continuous run lasted about 12 hours in duration with a total feed of about 1192 grams. A reflux ratio of 1:1 was employed. The column was operated at about 1 bar absolute pressure. During steady state operation the average distillate composition comprised about 16% water, 84% epoxybutene, and less than 0.01% 1,2-diol. The distillate separated into two liquid phases upon settling. The average bottoms product comprised 59.2% water, less than 0.2% epoxybutene, and 39.9% 1,2-diol. Approximately 66% of the epoxybutene present in the feed reacted to form 1,2-diol and higher diol oligomers and 93% of the unreacted epoxybutene was recovered in the distillate.
The distillation was conducted in a silvered, vacuum-jacketed glass Oldershaw column, equipped with a liquid-dividing distillation head, feed tray, reflux magnet, reflux timer, cooling water condenser, jacketed reboiler, pressure gage, and nitrogen purge line. The column was configured with a 15-plate stripping section, a 10-plate rectifying section, and a 500 ml jacketed flask heated by a thermostatted circulating oil bath. Feed to the column was supplied from a 5-liter jacketed vessel via a piston pump and bottoms take-off was removed via a second piston pump. The product removed from the base of the column was cooled in a small water-chilled stainless steel heat exchanger placed in line on the suction side of the pump. The distillate product flowed by gravity to a jacketed cooled receiver, which also functioned as a phase decanter. Thermocouples were provided at the reboiler, and distillation head. The continuous run lasted about 10 hours in duration with a total feed of about 3028 grams. A reflux ratio of 3:1 was employed. The column was operated at about 1 bar absolute pressure. During steady state operation the average distillate composition comprised about 20.4% water, 79.4% epoxybutene, and less than 0.2% 1,2-diol. […]

[3] = Rate of epoxybutene hydrolysis as a function of pH
Excerpt: Epoxybutene reacts readily with nucleophiles such as water and alcohols to form 3-butene-1,2-diol and glycol ethers, respectively. However, the relative rate of epoxybutene reaction with nucleophiles is a function of pH. Epoxybutene, like other epoxides, undergoes both acid and base catalysis. Acid catalysis has the larger influence on the rate of reaction. For example, the rate of epoxybutene hydrolysis is over 500 times greater at pH 3 than at pH 7. At pH 11, the rate is over 17 times greater than at pH 7. Since it is desirable to minimize epoxybutene losses due to reaction with nucleophiles, EpB reactivity can be reduced by maintaining the epoxybutene-laden solution at or near a pH of about 7 to 8. This can be done by adding a basic compound to the recovery system. Generally the process gas from the reactor contains ppm levels of formic acid and other organic acids. Thus, any basic material which is capable of neutralizing organic acids may be used in the present process. […]

| Compound | Distribution Coefficients Epoxy-Butene [1] | Distribution Coefficients Solvent [1] | Distribution Coefficients Water [1] | Distribution Coefficients Diol [1] | further results |
| --- | --- | --- | --- | --- | --- |
| C=CC1CO1 (stereo not drawn) [epoxybutene, 3,4-epoxy-1-butene] | – | – | – | – | epoxybutene present in the feed reacted to form 1,2-diol and higher diol oligomers ([2]; Comparative Example 1: distillation from 45.4% water, 9.1% epoxybutene, 45.5% 1,2-diol): Approximately 66%; epoxybutene present in the feed reacted to form 1,2-diol and higher diol oligomers ([2]; Example 6: distillation from p-xylene extract): Less than 0.5%; epoxybutene present in the feed reacted to form 1,2-diol and higher diol oligomers ([2]; Example 7: distillation from isobutyl isobutyrate extract): Less than 0.4%; percent epoxybutene loss ([2]; Example 11: distillation of water-rich layer (96.92% water, 3.0% epoxybutene), feed pH 8 with K2CO3-H3PO4 buffer, 740 Torr): 1.5%; rate of epoxybutene hydrolysis relative to pH 7 ([3]; pH 3 versus pH 7): over 500 times; rate of epoxybutene hydrolysis relative to pH 7 ([3]; pH 11 versus pH 7): over 17 times |
| ClC(Cl)Cl [Chloroform] | 8.73 | 8.33 | 0.024 | 0.106 | – |
| CC1=CC(=O)CC(C)(C)C1 [Isophorone] | ONE PHASE | – | – | – | – |
| Cc1cccc(C)c1 [m-Xylene] | 2.32 | 1479 | 0.002 | 0.005 | – |
| COC(C)(C)C [Methyl t-Butyl Ether] | ONE PHASE | – | – | – | – |
| C1CCCCC1 [Cyclohexane] | 2.09 | 215 | 0.001 | 0.000 | – |
| O=C1CCCCC1 [Cyclohexanone] | ONE PHASE | – | – | – | – |
| COC(=O)c1ccccc1 [Methyl Benzoate] | 2.84 | 6.66 | 0.076 | 0.155 | – |
| Cc1cccc2ccccc12 [1-Methylnaphthalene] | 3.10 | 101 | 0.002 | 0.006 | – |
| c1ccc2c(c1)CCCC2 [1,2,3,4-Tetrahydronaphthalene] | 1.91 | 51.8 | 0.010 | 0.021 | – |
| CCCCOC(=O)CC [Butyl Propionate] | 3.96 | 14.1 | 0.042 | 0.115 | – |
| Clc1ccccc1Cl [1,2-Dichlorobenzene] | 3.91 | 54.4 | 0.002 | 0.007 | – |
| Cc1ccc(C)cc1 [p-Xylene] | 4.34 | 368 | 0.002 | 0.005 | – |

Continued, in another order:

| Distribution Coefficients Epoxy-Butene [1] | Distribution Coefficients Solvent [1] | Distribution Coefficients Water [1] | Distribution Coefficients Diol [1] | Compound | further results |
| --- | --- | --- | --- | --- | --- |
| ONE PHASE | – | – | – | CCC(O)CC [3-Pentanol] | – |
| 2.19 | 124 | 0.012 | 0.027 | CC(C)C(=O)OCC(C)(C)C(OC(=O)C(C)C)C(C)C (stereo not drawn) [2,2,4-Trimethyl-1,3-Pentanediol Diisobutyrate] | – |
| 2.80 | 25.6 | 0.073 | 0.181 | CC(=O)OCCC(C)C [Isopentyl Acetate] | – |
| ONE PHASE | – | – | – | CCC(=O)CC [3-Pentanone] | – |
| ONE PHASE | – | – | – | CCCC(C)=O [2-Pentanone] | – |
| 1.92 | 329 | 0.001 | 0.004 | CC(C)c1cccc(C(C)C)c1 [1,3-Diisopropylbenzene] | – |
| ONE PHASE | – | – | – | CC(=O)CC(C)C [Methyl Isobutyl Ketone] | – |
| ONE PHASE | – | – | – | CC1COC(=O)O1 (stereo not drawn) [Propylene Carbonate] | – |
| ONE PHASE | – | – | – | C[S+](C)[O-] [Dimethylsulfoxide] | – |
| 1.93 | 851 | 0.001 | 0.001 | CCCCCCC [n-Heptane] | – |
| 3.49 | 34.4 | 0.022 | 0.065 | CC(C)COC(=O)C(C)C [Isobutyl isobutyrate] | – |
| 1.06 | 1907 | 0.000 | 0.001 | CCCCCCCCCC [n-Decane] | – |
| 2.28 | 352 | 0.001 | 0.003 | C=C(C)[C@H]1CC=C(C)CC1 [Limonene] | – |
| ONE PHASE | – | – | – | COCC(C)OC(C)=O (stereo not drawn) [2-Methoxy-1-Methylethyl Acetate] | – |
| ONE PHASE | – | – | – | CCCCC(CC)CO (stereo not drawn) [2-Ethylhexanol] | – |
